target: T1, EGFR (Homo sapiens, UniProt P00533); experiment: EGFR ELISA assay (in vitro kinase activity, EGFR captured from A431 cell lysate); type: biochemical; parameters: concentration or dose not given beside the values
T1 construct: Add 7 ug A431 cell lysate per well (EGFR source); endogenous in cells; host or cells: A431
Procedure, shortened: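 EGFR from A431 lysate was captured on anti-EGFR antibody-coated plates and preincubated with compounds for 30 min. Autophosphorylation ran 5 min with 3 uM ATP and 5 mM MnCl2 (final), stopped with 20 mM EDTA. Phosphotyrosine was detected by anti-pTyr ELISA with ABTS/H2O2, read at 410 nm.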

T1 sequence (P00533 25-1210): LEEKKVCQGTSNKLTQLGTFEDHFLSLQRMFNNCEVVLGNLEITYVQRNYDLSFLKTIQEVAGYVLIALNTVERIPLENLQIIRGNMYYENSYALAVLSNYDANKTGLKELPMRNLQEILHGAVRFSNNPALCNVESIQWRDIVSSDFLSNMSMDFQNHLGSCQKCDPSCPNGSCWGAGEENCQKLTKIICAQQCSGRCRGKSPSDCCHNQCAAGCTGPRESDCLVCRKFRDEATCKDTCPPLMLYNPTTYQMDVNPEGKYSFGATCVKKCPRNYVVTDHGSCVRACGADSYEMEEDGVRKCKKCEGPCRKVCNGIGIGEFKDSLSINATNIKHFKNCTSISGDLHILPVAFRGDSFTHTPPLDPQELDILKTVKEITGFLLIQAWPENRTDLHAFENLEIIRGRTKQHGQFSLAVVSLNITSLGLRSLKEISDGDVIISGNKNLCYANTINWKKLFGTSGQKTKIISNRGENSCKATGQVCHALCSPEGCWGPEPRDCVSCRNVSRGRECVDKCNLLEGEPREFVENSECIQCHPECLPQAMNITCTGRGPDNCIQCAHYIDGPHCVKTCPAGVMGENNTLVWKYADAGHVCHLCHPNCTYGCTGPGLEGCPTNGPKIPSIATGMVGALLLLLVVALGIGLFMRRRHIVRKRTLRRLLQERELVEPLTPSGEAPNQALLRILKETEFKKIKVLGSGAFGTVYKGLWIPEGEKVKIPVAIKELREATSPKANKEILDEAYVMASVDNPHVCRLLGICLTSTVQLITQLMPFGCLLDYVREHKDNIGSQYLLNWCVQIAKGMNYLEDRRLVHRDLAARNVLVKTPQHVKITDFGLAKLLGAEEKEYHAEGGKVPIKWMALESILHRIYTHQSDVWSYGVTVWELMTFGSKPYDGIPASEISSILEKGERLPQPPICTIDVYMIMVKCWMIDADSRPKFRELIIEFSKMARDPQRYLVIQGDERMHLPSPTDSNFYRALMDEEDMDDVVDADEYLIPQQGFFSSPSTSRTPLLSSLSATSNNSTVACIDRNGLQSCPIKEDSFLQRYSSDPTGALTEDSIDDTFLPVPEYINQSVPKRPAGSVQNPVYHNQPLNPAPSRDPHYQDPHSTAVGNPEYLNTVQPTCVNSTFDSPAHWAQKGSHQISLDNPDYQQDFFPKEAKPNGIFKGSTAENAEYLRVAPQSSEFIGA

SMILES | Biochem EGFR %Inhibition [%]
CNS(=O)(=O)c1ccc2c(c1)C(=Cc1ccccn1)C(=O)N2 [10729/D07] | 21.4
COc1cc(Br)c(O)c(C=C2C(=O)Nc3ccc(I)cc32)c1 [10718/B03] | -0.2
CNS(=O)(=O)c1ccc2c(c1)C(=Cc1ccncc1)C(=O)N2 [10729/D09] | 22.1
Cc1c(Br)ccc2c1C(=Cc1ccccn1)C(=O)N2 [10729/C07] | 60.8
Cc1c(Br)ccc2c1C(=Cc1ccncc1)C(=O)N2 [10729/C09] | 33.2
O=C1Nc2ccc(I)cc2C1=Cc1cccnc1 [10729/B08] | 53.2
COc1ccc(OC)c(C=C2C(=O)Nc3ccc(CCCl)cc32)c1 [10728/G02] | -10.2
O=C1Nc2ccc(CCCl)cc2C1=Cc1cc(C(F)(F)F)ccc1F [10728/G08] | -5.7
Cc1ccsc1C=C1C(=O)Nc2ccc(S(=O)(=O)Nc3ccc(C(F)(F)F)cc3)cc21 [10729/E05] | 12.6
O=C1Nc2ccc(I)cc2C1=Cc1ccccn1 [10729/B07] | 69.0
CSc1ccc(C=C2C(=O)Nc3c(Br)cc(Br)cc32)cc1 [10729/A04] | 58.8
O=C1Nc2c(Br)cc(Br)cc2C1=Cc1ccc(N2CCCC2)cc1 [10729/A10] | 28.7
CSc1ccc(C=C2C(=O)Nc3ccc(S(=O)(=O)Nc4ccc(C(F)(F)F)cc4)cc32)cc1 [10729/E04] | 19.5
O=C1Nc2ccc(S(=O)(=O)Nc3ccc(C(F)(F)F)cc3)cc2C1=Cc1ccccn1 [10729/E07] | 26.7
O=C1Nc2ccc(I)cc2C1=Cc1ccncc1 [10729/B09] | 51.6
O=C1Nc2ccc(S(=O)(=O)Nc3ccc(C(F)(F)F)cc3)cc2C1=Cc1cc(C(F)(F)F)ccc1F [10728/E08] | 5.1
O=C1Nc2c(Br)cc(Br)cc2C1=Cc1ccco1 [10718/A10] | 41.5
CNS(=O)(=O)c1ccc2c(c1)C(=Cc1ccc(N3CCCC3)cc1)C(=O)N2 [10729/D10] | 11.3
CNS(=O)(=O)c1ccc2c(c1)C(=Cc1cc(OC)c3c(c1)OCO3)C(=O)N2 [10728/D11] | 22.1
CNS(=O)(=O)c1ccc2c(c1)C(=Cc1cccc(C(F)(F)F)c1F)C(=O)N2 [10728/D07] | 2.4
CNS(=O)(=O)c1ccc2c(c1)C(=Cc1ccc(SC)cc1)C(=O)N2 [10729/D04] | 18.8
CNS(=O)(=O)c1ccc2c(c1)C(=Cc1cccnc1)C(=O)N2 [10729/D08] | 10.3
Cc1ccsc1C=C1C(=O)Nc2ccc(I)cc21 [10729/B05] | 50.6
O=C1Nc2ccc(S(=O)(=O)Nc3ccc(C(F)(F)F)cc3)cc2C1=Cc1cccc(Oc2ccccc2)c1 [10729/E06] | 43.7
COc1cc(C=C2C(=O)Nc3ccc(CCCl)cc32)cc2c1OCO2 [10728/G11] | 16.1
COc1ccc2ccccc2c1C=C1C(=O)Nc2c(Br)cc(Br)cc21 [10729/A02] | 10.0
O=C1Nc2ccc(S(=O)(=O)Nc3ccc(C(F)(F)F)cc3)cc2C1=Cc1ccc2c(c1)Cc1ccccc1-2 [10728/E06] | -4.7

SMILES | Biochem EGFR %Inhibition [%]
O=C1Nc2ccc(I)cc2C1=Cc1ccc2ccccc2c1O [10718/B04] | 8.5
Cc1c(Br)ccc2c1C(=Cc1cccnc1)C(=O)N2 [10729/C08] | 25.4
COc1ccc2ccccc2c1C=C1C(=O)Nc2ccc(I)cc21 [10729/B02] | 34.9
COc1ccc(C=C2C(=O)Nc3ccc(S(=O)(=O)Nc4ccc(C(F)(F)F)cc4)cc32)c2ccccc12 [10729/E03] | 20.1
CNS(=O)(=O)c1ccc2c(c1)C(=Cc1c(F)cccc1C(F)(F)F)C(=O)N2 [10728/D09] | -2.9
COc1ccc(OC)c(C=C2C(=O)Nc3ccc(S(=O)(=O)NN4CCOCC4)cc32)c1 [10728/F02] | 4.4
O=C(O)COc1ccccc1C=C1C(=O)Nc2ccc(CCCl)cc21 [10728/G10] | -12.5
O=C1Nc2ccc(CCCl)cc2C1=Cc1ccc2c(c1)Cc1ccccc1-2 [10728/G06] | -14.1
COc1ccc2ccccc2c1C=C1C(=O)Nc2ccc(S(=O)(=O)Nc3ccc(C(F)(F)F)cc3)cc21 [10729/E02] | 8.0
Cc1ccsc1C=C1C(=O)Nc2ccc(Br)c(C)c21 [10729/C05] | 21.8
O=C1Nc2ccc(I)cc2C1=CC1C=CCCC1 (centres unmarked) [10729/B11] | 18.8
COc1cc(N(C)C)ccc1C=C1C(=O)Nc2ccc(S(=O)(=O)Nc3ccc(C(F)(F)F)cc3)cc21 [10728/E05] | 7.4
O=C1Nc2c(Br)cc(Br)cc2C1=Cc1cccc(Oc2ccccc2)c1 [10729/A06] | 36.5
CNS(=O)(=O)c1ccc2c(c1)C(=Cc1c(OC)ccc3ccccc13)C(=O)N2 [10729/D02] | -5.7
COc1cc(C=C2C(=O)Nc3ccc(CCCl)cc32)cc(OC)c1 [10728/G04] | -8.2
CNS(=O)(=O)c1ccc2c(c1)C(=Cc1ccccc1OCC(=O)O)C(=O)N2 [10728/D10] | 18.6
O=C1Nc2c(Br)cc(Br)cc2C1=Cc1cccnc1 [10729/A08] | 37.8
CNS(=O)(=O)c1ccc2c(c1)C(=CC1C=CCCC1)C(=O)N2 (centres unmarked) [10729/D11] | 19.2
COc1cccc(OC)c1C=C1C(=O)Nc2ccc(S(=O)(=O)Nc3ccc(C(F)(F)F)cc3)cc21 [10728/E03] | 9.5
CNS(=O)(=O)c1ccc2c(c1)C(=Cc1cccc(Oc3ccccc3)c1)C(=O)N2 [10729/D06] | 45.7
CSc1ccc(C=C2C(=O)Nc3ccc(I)cc32)cc1 [10729/B04] | 63.7
COc1ccc(C=C2C(=O)Nc3ccc(I)cc32)c2ccccc12 [10729/B03] | 38.2
Cc1c(Br)ccc2c1C(=CC1C=CCCC1)C(=O)N2 (centres unmarked) [10729/C11] | 35.9
COc1ccc(C=C2C(=O)Nc3c(Br)cc(Br)cc32)c2ccccc12 [10729/A03] | 27.0
COc1ccc(C=C2C(=O)Nc3ccc(Br)c(C)c32)c2ccccc12 [10729/C03] | 25.7
CNS(=O)(=O)c1ccc2c(c1)C(=Cc1cc(C(F)(F)F)ccc1F)C(=O)N2 [10728/D08] | 6.9
O=C1Nc2ccc(CCCl)cc2C1=Cc1cccc(C(F)(F)F)c1F [10728/G07] | -12.3

SMILES | Biochem EGFR %Inhibition [%]
Cc1c(O)ccc(C=C2C(=O)Nc3c(Br)cc(Br)cc32)c1O [10718/A09] | -4.1
CSc1ccc(C=C2C(=O)Nc3ccc(Br)c(C)c32)cc1 [10729/C04] | 35.9
O=C(O)COc1ccccc1C=C1C(=O)Nc2ccc(S(=O)(=O)Nc3ccc(C(F)(F)F)cc3)cc21 [10728/E10] | -20.8
COc1cc(C=C2C(=O)Nc3ccc(S(=O)(=O)Nc4ccc(C(F)(F)F)cc4)cc32)cc(OC)c1 [10728/E04] | 10.1
Cc1ccc(C=C2C(=O)Nc3c(Br)cc(Br)cc32)s1 [10717/A07] | 20.2
O=C1Nc2ccc(I)cc2C1=Cc1cccc(Oc2ccccc2)c1 [10729/B06] | 56.9
COc1cc(C=C2C(=O)Nc3ccc(S(=O)(=O)Nc4ccc(C(F)(F)F)cc4)cc32)cc2c1OCO2 [10728/E11] | -5.9
COc1ccc(OC)c(C=C2C(=O)Nc3ccc(S(=O)(=O)Nc4ccc(C(F)(F)F)cc4)cc32)c1 [10728/E02] | 7.4
O=C1Nc2c(Br)cc(Br)cc2C1=Cc1ccncc1 [10729/A09] | 25.7
O=C1Nc2ccc(S(=O)(=O)Nc3ccc(C(F)(F)F)cc3)cc2C1=Cc1cccc(C(F)(F)F)c1F [10728/E07] | 21.8
CCOC(=O)c1c(C)[nH]c(C=C2C(=O)Nc3ccc(I)cc32)c1C [10718/B02] | 24.9
COc1cccc(OC)c1C=C1C(=O)Nc2ccc(CCCl)cc21 [10728/G03] | -2.0
O=C1Nc2c(Br)cc(Br)cc2C1=CC1C=CCCC1 (centres unmarked) [10729/A11] | 15.5
O=C1Nc2ccc(S(=O)(=O)Nc3ccc(C(F)(F)F)cc3)cc2C1=Cc1c(F)cccc1C(F)(F)F [10728/E09] | 0.1
Cc1c(Br)ccc2c1C(=Cc1cccc(Oc3ccccc3)c1)C(=O)N2 [10729/C06] | 38.2
CNS(=O)(=O)c1ccc2c(c1)C(=Cc1sccc1C)C(=O)N2 [10729/D05] | 22.1
Cc1c(Br)ccc2c1C(=Cc1ccc(N3CCCC3)cc1)C(=O)N2 [10729/C10] | 45.7
O=C1Nc2c(Br)cc(Br)cc2C1=Cc1ccc([N+](=O)[O-])o1 [10718/A11] | 21.2
COc1ccc2ccccc2c1C=C1C(=O)Nc2ccc(Br)c(C)c21 [10729/C02] | 16.9
Cc1ccsc1C=C1C(=O)Nc2c(Br)cc(Br)cc21 [10729/A05] | 23.4
CCOC(=O)c1cc(C=C2C(=O)Nc3ccc(I)cc32)oc1C [10718/B06] | 28.5
O=C1Nc2ccc(I)cc2C1=Cc1ccc(N2CCCC2)cc1 [10729/B10] | 68.3
O=C1Nc2c(Br)cc(Br)cc2C1=Cc1ccccn1 [10729/A07] | 49.0
CNS(=O)(=O)c1ccc2c(c1)C(=Cc1ccc(OC)c3ccccc13)C(=O)N2 [10729/D03] | 15.5
COc1cc(N(C)C)ccc1C=C1C(=O)Nc2ccc(CCCl)cc21 [10728/G05] | 7.2
O=C1Nc2ccc(CCCl)cc2C1=Cc1c(F)cccc1C(F)(F)F [10728/G09] | -8.0
